Laboratory results taken from patent US6524625B2, “Physiologically active extract obtained from indigo plant polygonum tinctorium” (Kabushiki Kaisha Hayashibara Seibutsu Kagaku Kenkyuto, priority 1998, dated 2003).
Converted amounts (≈) assume the structure as drawn.

Key:
[1] = test system: Pseudomonas aeruginosa (IFO 3453); test: Antiseptic action: MIC, agar plate dilution method; format: cell-based; settings: Pseudomonas aeruginosa, IFO3453, read-out: Minimum inhibitory concentration
[2] = test system: Staphylococcus aureus (ATCC 6538P); test: Antiseptic action: MIC, agar plate dilution method; format: cell-based; settings: Staphylococcus aureus, ATCC6538P, read-out: Minimum inhibitory concentration
HL-60 cells [3] = test: Apoptosis controlling action, propidium iodide flow cytometry; format: cell-based, human; settings: HL-60 cells (5 × 10^5 cells/ml)
Experimental: (§1) The solution was distributed to a microplate in one milliliter per well, and the solution in each well was diluted in series with a fresh preparation of the same medium as used in the above.
(§2) HL-60 cells, ATCC CCL-240, derived from a patient with acute promyelocytic leukemia; U-937 cells, ATCC CRL-1593.2, derived from a patient with human histiocytic lymphoma; HGC-27 cells, RCB0500, derived from a patient with gastric cancer; HLC-1 cells, RCB0083, derived from a patient with lung adenocarcinoma; and C6 cells, ATCC CCL-107, derived from rat glial tumor, were respectively suspended in RPMI1640 medium (pH 7.2) to give a cell density of 1×10^6 cells/ml or 2×10^5 cells/ml. To the microplate, containing a one milliliter dilution of 20, 10 or 5.0 μg/ml of Compound 1, was added one milliliter per well of either of the above cell suspensions and used for test systems. All the test systems were made duplex and respectively subjected to 24- and 48-hour incubations in a 5 v/v % CO2 incubator at 37° C. A system free of Compound 1 was provided and treated similarly as above and used for control.
(§3) According to the method by I. Nicoletti et al. in Journal of Immunological Methods, Vol. 139, pp. 271-279 (1991), the apoptosis-induced cells in the test systems and control were stained by propidium iodide and determined for the percentage of the stained cells to the total cells in such a manner that transferring each of the cultures to polypropylene tubes, centrifuging the tubes, removing the resulting supernatants, washing the cells' sediments with phosphate buffered saline containing 0.3 v/v % calf serum albumin, and further centrifuging the washed cells to remove supernatants. The newly formed sediments were respectively mixed with 50 μg/ml of propidium iodide commercialized by Sigma Chemical Company, St. Louis, Mo., USA, 0.1 w/v % sodium citrate, and0.1 w/v % “TRITON X-100”, a surfactant commercialized by Sigma Chemical Company, St. Louis, Mo., USA, in respective volumes of 1.5 ml to stain the cells by propidium iodide. The stained cells were stored at 4° C. in the dark overnight. The stained cells of each test system were analyzed on “EPICS PROFILE II”, a flow cytometry commercialized by Beckman Coulter, Inc., CA, USA. Based on the data the percentage of the stained cells to the total cells in each test system was measured for apoptosis occurrence.

HGC-27 cells [4] = test: as above; format: cell-based, human; settings: HGC-27 cells (1 × 10^5 cells/ml)
Experimental: as §1, §2, §3

HLC-1 cells [5] = test: as above; format: cell-based, human; settings: HLC-1 cells (1 × 10^5 cells/ml)
Experimental: as §1, §2, §3

U-937 cells = test: as above; format: cell-based, human; settings: U-937 cells (5 × 10^5 cells/ml)
Experimental: as §1, §2, §3

[6] = test system: Helicobacter pylori (NCTC 11638); test: Antiseptic action: MIC, agar plate dilution method; format: cell-based
HL-60 cells [7] = test: Antitumor action: growth inhibition, methylene blue staining; format: cell-based; settings: Homo sapiens, HL-60, 48 h, read-out: 50% growth inhibitory concentration
Experimental: (§4) Solutions in each well were serially diluted with a fresh preparation of the same RPMI1640 medium (pH 7.2) as used in the above. […] Each cell suspension was distributed to a microplate in a volume of 50 μl/well and incubated at 37° C. for 48 hours in a 5 v/v % CO2 incubator. To each microplate, a 25 v/v % aqueous glutaraldehyde solution was added in a volume of 20 μl/well, and the microplate was allowed to stand for 15 min to fix the cells. Then, the cells adhered to the wells were washed with water, admixed with a 0.05 w/v % aqueous methylene blue solution in a volume of 100 μl/well, and further allowed to stand for 15 min to stain the cells. Thereafter, an excessive amount of the staining solution was removed from the wells by washing with water, and the cells were dried, admixed with 300 μl/well of 0.33 N hydrochloric acid, stirred sufficiently, and measured for absorption at a wavelength of 620 nm. In parallel, as a control, a system free of a test sample was provided and treated similarly as in the test samples. […]

HGC-27 cells [8] = test: as above; format: cell-based; settings: Homo sapiens, HGC-27, 48 h, read-out: 50% growth inhibitory concentration
Experimental: as §4

HLC-1 cells [9] = test: as above; format: cell-based; settings: Homo sapiens, 48 h, read-out: 50% growth inhibitory concentration
Experimental: as §4

[10] = test system: Bacillus cereus (IFO 3466); test: Antiseptic action: MIC, agar plate dilution method; format: cell-based; settings: Bacillus cereus, IFO3466, read-out: Minimum inhibitory concentration
C6 cells = test: Apoptosis controlling action, propidium iodide flow cytometry; format: cell-based, rat; settings: C6 cells (1 × 10^5 cells/ml)
Experimental: as §1, §2, §3

[11] = 48 hours, 2.5 μg/ml, control 1.5
[12] = 48 hours, 5.0 μg/ml, control 1.5
[13] = 48 hours, 10 μg/ml, control 1.5

## O=C1c2ccccc2-n2c1nc1ccccc1c2=O [Compound 1, 6,12-dihydro-6,12-dioxoindolo[2,1-b]quinazoline]
[1]
  MIC: 39 µg/mL (≈ 157 µM)
[2]
  MIC: 39 µg/mL (≈ 157 µM)
HL-60 cells [3]; 24 hours, 2.5 μg/ml, control 0.7
  Apoptosis occurrence: 0.7%
HL-60 cells [3]; 24 hours, 5.0 μg/ml, control 0.7
  Apoptosis occurrence: 1.7%
HL-60 cells [3]; 24 hours, 10 μg/ml, control 0.7
  Apoptosis occurrence: 11.8%
HL-60 cells [3]; [11]
  Apoptosis occurrence: 1.3%
HL-60 cells [3]; [12]
  Apoptosis occurrence: 4.2%
HL-60 cells [3]; [13]
  Apoptosis occurrence: 22.6%
HGC-27 cells [4]; 24 hours, 2.5 μg/ml, control 1.5
  Apoptosis occurrence: 1.9%
HGC-27 cells [4]; 24 hours, 5.0 μg/ml, control 1.5
  Apoptosis occurrence: 1.7%
HGC-27 cells [4]; 24 hours, 10 μg/ml, control 1.5
  Apoptosis occurrence: 3.5%
HGC-27 cells [4]; 48 hours, 2.5 μg/ml, control 1.4
  Apoptosis occurrence: 2.2%
HGC-27 cells [4]; 48 hours, 5.0 μg/ml, control 1.4
  Apoptosis occurrence: 4.1%
HGC-27 cells [4]; 48 hours, 10 μg/ml, control 1.4
  Apoptosis occurrence: 14.1%
HLC-1 cells [5]; 24 hours, 2.5 μg/ml, control 2.7
  Apoptosis occurrence: 3.7%
HLC-1 cells [5]; 24 hours, 5.0 μg/ml, control 2.7
  Apoptosis occurrence: 4.2%
HLC-1 cells [5]; 24 hours, 10 μg/ml, control 2.7
  Apoptosis occurrence: 8.1%
HLC-1 cells [5]; [11]
  Apoptosis occurrence: 5.8%
HLC-1 cells [5]; [12]
  Apoptosis occurrence: 7.3%
HLC-1 cells [5]; [13]
  Apoptosis occurrence: 21.8%
U-937 cells; 24 hours, 2.5 μg/ml, control 3.2
  Apoptosis occurrence: 3.2%
U-937 cells; 24 hours, 5.0 μg/ml, control 3.2
  Apoptosis occurrence: 5.0%
U-937 cells; 24 hours, 10 μg/ml, control 3.2
  Apoptosis occurrence: 6.8%
U-937 cells; 48 hours, 2.5 μg/ml, control 4.5
  Apoptosis occurrence: 5.2%
U-937 cells; 48 hours, 5.0 μg/ml, control 4.5
  Apoptosis occurrence: 11.7%
U-937 cells; 48 hours, 10 μg/ml, control 4.5
  Apoptosis occurrence: 66.9%
[6]; Helicobacter pylori, NCTC11638, read-out: Minimum inhibitory concentration
  MIC: 2.5 µg/mL (≈ 10.1 µM)
[6]; comment on Table 8
  Inhibition of the growth of Helicobacter pylori (in words): strongly inhibited the growth
HL-60 cells [7]
  IC50: 4.2 µg/mL (≈ 16.9 µM)
HGC-27 cells [8]
  IC50: 1.5 µg/mL (≈ 6.04 µM)
HLC-1 cells [9]
  IC50: 2.2 µg/mL (≈ 8.86 µM)
[10]
  MIC: 39 µg/mL (≈ 157 µM)
C6 cells; 24 hours, 2.5 μg/ml, control 0.3
  Apoptosis occurrence: 15.9%
C6 cells; 24 hours, 5.0 μg/ml, control 0.3
  Apoptosis occurrence: 18.4%
C6 cells; 24 hours, 10 μg/ml, control 0.3
  Apoptosis occurrence: 27.6%
C6 cells; 48 hours, 2.5 μg/ml, control 0.4
  Apoptosis occurrence: 38.4%
C6 cells; 48 hours, 5.0 μg/ml, control 0.4
  Apoptosis occurrence: 64.8%
C6 cells; 48 hours, 10 μg/ml, control 0.4
  Apoptosis occurrence: 67.1%
